Test system: aggregation of the blood platelets brought about by PAF
Test: inhibition of PAF-triggered platelet aggregation in platelet-rich plasma (PRP), aggregometer
Assay type: cell-based
Conditions: Oryctolagus cuniculus, rabbit PRP, 37° C., sub-maximum dosage of PAF (4 nM), test substance added 2 minutes before PAF
Protocol: Platelet-rich plasma (PRP) is prepared by centrifugation of rabbit blood containing 1/10 volumes of 90 mM trisodium citrate. The aggregation of the blood platelets is measured with the aid of an aggregometer at 37° C. while stirring. 2 minutes after the addition of the test sub- stance to the PRP the platelet aggregation is triggered off by a sub-maximum dosage of PAF (4 nM). The IC50 value (μM) given in the following Table corresponds to that concentration of the test substance which reduces to a half the aggregation of the blood platelets brought about by PAF.

SMILES	IC50 [nM]
CCCCCCCCCCCCCCCCCC(=O)OCC(COC(=O)CCC[N+](C)(C)C)NC(C)=O (racemic) [Example 1, [3-[[(RS)-2-acetamido-3-[octadecanoyloxy]propoxy]carbonyl]propyl]trimethylammonium chloride]	5500
CCCCCCCCCCCCCCCCCCNC(=O)OCC(COC(=O)CCC[N+](C)(C)C)NC(=O)OC (racemic) [Example 2, [3-[[(RS)-2-(1-methoxyformamido)-3-(octadecylcarbamoyloxy)propoxy]carbonyl]propyl]trimethylammonium chloride]	1800
CCCCCCCCCCCCCCCCCCOCC(COC(=O)OCC[N+]1(C)CCCCC1)OC (racemic) [Example 3, 1-[2-[[[(RS)-2-methoxy-3-(octadecyloxy)propoxy]carbonyl]oxy]ethyl]-1-methylpiperidinium chloride]	4000
CCCCCCCCCCCCCCCCCCOC(=O)NCC(COC(=O)CCC[N+](C)(C)C)OC(=O)NC (racemic) [Example 4, [3-[[(RS)-2-Methylcarbamoyloxy-3-[1-(octadecyloxy)formamido]propoxy]carbonyl]propyl]trimethylammonium chloride]	1800
CCCCCCCCCCCCCCCCCCOC(=O)N(CC(COCCCC[n+]1ccsc1)OC(=O)NC)C(C)C (racemic) [Example 5, 3-[4-[(RS)-3-[N-isopropyl-1-(octadecyloxy)formamido]-2-[(methylcarbamoyl)oxy]-propoxy]butyl]thiazolium bromide]	40
CCCCCCCCCCCCCCCCCCOC(=O)N(CC(COCCCC[N+](C)(C)C)OC(=O)NC)C(C)C (racemic) [Example 6, [4-[(RS)-3-[N-isopropyl(1-octadecyloxy)formamido]-2-[(methylcarbamoyl)oxy]propoxy]butyl]trimethylammonium bromide]	500
CCCCCCCCCCCCCCCCCCNC(=O)N(CC(COCCCC[n+]1ccsc1)OC(=O)NC)C(C)C (racemic) [Example 7, 3-[4-[(RS)-3-(1-isopropyl-3-octadecylureido)-2-[(methylcarbamoyl)oxy]propoxy]butyl]thiazolium bromide]	50
CCCCCCCCCCCCCCCCCCNC(=O)N(CC(COCCCCn1cc[n+](C)c1)OC(=O)NC)C(C)C (racemic) [Example 8, 1-[4-[(RS)-3-(1-isopropyl-3-octadecylureido)-2-[(methylcarbamoyl)oxy]propoxy]butyl]-3-methylimidazolium bromide]	400
CCCCCCCCCCCCCCCCCCOC(=O)N(CC(COCCCC[n+]1ccsc1)OC(=O)OC)C(C)C (racemic) [Example 9, 3-[4-(RS)-3-(N-isopropyl-1-octadecyloxyformamido)-2-(methoxycarbonyloxy)propoxy]butyl]thiazolium bromide]	60

Reference: US4863941A, “Glycerol derivatives” (Hoffmann-La Roche Inc., priority 1985, dated 1989)
